Measured values: patent US11453847B2, “Laundry sheet” (priority 2018, dated 2022)

Legend:
Water flea = details: in vivo
Method: (§1) (4) An ecotoxicity test was performed on various alkyl polyglucosides.

Algal = details: in vivo
Method: as §1

Substance: fatty acid methyl ester ethoxylate [FMEE]
- Water flea test EC50 (49 h) (Water flea): 79.2 mg/L
- Algal test EC50 (72 h) (Algal): >100 mg/L

Substance: alkyl ethoxylate [AEO]
- Water flea test EC50 (49 h) (Water flea): 1.9 mg/L
- Algal test EC50 (72 h) (Algal): 1.2 mg/L
